Test results reported in patent US20230152329A1, “NOVEL SPLIT-LUCIFERASE ENZYMES AND APPLICATIONS THEREOF” (ARIZONA BOARD OF REGENTS ON BEHALF OF THE UNIVERSITY OF …, priority 2020, published 2023).
Read-outs that look alike come from different tables or passages of the source.

Legend:
[1] = target: T1, protein-protein interaction of Bcl-xL and BAK (Homo sapiens, UniProt Q07817); experiment: In cellulo split-luciferase assay, inhibition of Bcl-xL/BAK interaction in HEK293T cells; type: cell-based; conditions: 14 hours; for inhibition at 10 µM: HEK-293T, read-out: Percent Inhibition
T1 construct: appending the soluble domain of Bcl-xL to the C-terminal fragment of N-Fluc228 Y33A/H46A; expressed in transfected cells; host or cells: HEK293T, transient transfection (pcDNA 3.1 constructs)
T1 sequence (Q07817 1-209 limits assumed): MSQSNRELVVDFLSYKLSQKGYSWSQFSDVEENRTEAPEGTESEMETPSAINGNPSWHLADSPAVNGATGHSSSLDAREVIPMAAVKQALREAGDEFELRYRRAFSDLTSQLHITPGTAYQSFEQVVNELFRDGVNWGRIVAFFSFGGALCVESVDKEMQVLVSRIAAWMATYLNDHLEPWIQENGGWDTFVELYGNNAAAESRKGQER
Experimental: N-terminal halves of firefly luciferase (N-Fluc) constructs were generated by fusing FK506-binding protein (FKBP) or Bcl-xL 209 (CΔ24) to the C-terminal of N-Fluc with a 27-residue glycine-serine linker in pcDNA 3.1 via restriction cloning. […] For in vitro assays, mRNA was generated using RiboMaX large scale RNA production system (T7) for 4 h at 30° C. and subsequently purified using G50-microcolumns.
HEK293T cells were maintained in DMEM supplemented with 10% (v/v) FBS, 2.5 μg/mL Amphotericin B, 100 U/mL penicillin, and 100 μg/mL streptomycin, and in a 37° C. water-saturated incubator with 5% CO2. For in cellulo experiments, 3×10^6 cells were seeded in 60 mm dishes for 24 h and then transiently transfected with equal amounts of DNA of each luciferase fragment using PolyJet In Vitro DNA Transfection Reagent. Twelve hours following transfection, 2.5×10^5 cells were transferred to 24-well plates and incubated for an additional 24 h. […] All reported data was done at least in duplicate and repeated on different days. Data from luciferase assays were all normalized by lysate load and with background correction of equivalently treated mock transfected HEK293T cells.
Split-Fluc228 Y33A/H46A constructs were created by appending the soluble domain of Bcl-xL to the C-terminal fragment of N-Fluc228 Y33A/H46A with a 27-residue glycine-serine linker, giving N-Fluc228 Y33A/H46A-GS27-Bcl-xL. The BH3 domain of BAK (20 residues) was appended to the N-terminal fragment of C-Fluc229 through a 30-residue glycine-serine linker, providing BAK-GS30-C-Fluc229.

[2] = target: T2, FKBP-Rapamycin-FRB (Homo sapiens, UniProt P42345+P62942); experiment: Cell-free (rabbit reticulocyte lysate) rapamycin-inducible split-luciferase assay; type: biochemical; conditions: cell-free RRL; for rapamycin dependent luminescence signal (overall signal): 100 nM rapamycin; for unassisted/background complementation: without added rapamycin (DMSO)
T2 construct: N-terminal fragment of firefly luciferase (N-Fluc); split at 159, 228, 374, 397 or 405; C-terminal fragment of firefly luciferase (C-Fluc); made in house; host or cells: cell-free translation in rabbit reticulocyte lysate (RRL) from in vitro transcribed mRNA
T2 sequence (P62942 whole entry, the tested form may be a part): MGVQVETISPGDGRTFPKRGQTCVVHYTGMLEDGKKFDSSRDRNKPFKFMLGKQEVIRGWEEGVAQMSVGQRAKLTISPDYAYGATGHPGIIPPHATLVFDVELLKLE
T2 sequence (P42345 2012-2144 limits assumed): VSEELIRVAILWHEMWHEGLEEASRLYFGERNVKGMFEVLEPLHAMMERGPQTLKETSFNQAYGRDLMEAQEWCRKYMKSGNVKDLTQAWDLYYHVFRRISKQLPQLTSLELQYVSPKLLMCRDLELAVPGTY
Excerpt: N-terminal halves of firefly luciferase (N-Fluc) constructs were generated by fusing FK506-binding protein (FKBP) or Bcl-xL 209 (CΔ24) to the C-terminal of N-Fluc with a 27-residue glycine-serine linker in pcDNA 3.1 via restriction cloning. C-terminal halves of firefly luciferase (C-Fluc) were created by fusing either FKBP rapamycin-binding (FRB) domain or the BH3-domain of BAK to the N-terminal of C-Fluc with a 30-residue glycine-serine linker in pcDNA 3.1 via restriction cloning. For in vitro assays, mRNA was generated using RiboMaX large scale RNA production system (T7) for 4 h at 30° C. and subsequently purified using G50-microcolumns.
Following translation, 20 μL of lysate was added to 80 μL of L-Glo luciferase assay reagent, incubated at room temperature for 1 min and luminescence was subsequently read using a luminometer with 10 s integration time. All reported data are at least in duplicate and assays have been repeated on different days. Data from the reported luciferase assays were all normalized with background correction of equivalent treatment of RRL without added mRNA.
The N-terminal fragment of each split-luciferase was fused to FKBP at the C-terminal end and the C-terminal fragment of each split-luciferase was fused to FRB at the N-terminal end. Referring to FIG. 2A, the linkers between the enzyme fragments and the FKBP or FRB included 27 to 30 residue glycine-serine linkers. With the five split-Fluc constructs in hand, complementation was tested employing a cell-free protein expression approach using rabbit reticulocyte lysate (RRL), which allows for rapid protein expression and analysis. […] Following incubation, L-Glo reagent containing the substrate, luciferin, was added to each of the split-Fluc pairs and luminescence was subsequently measured.

[3] = 10 μM ABT-737, N-Fluc228 WT-Bcl-xL CΔ24 with BAK-CFluc229, HEK293T
[4] = 10 μM ABT-737, N-Fluc228 Y33A/H46A-Bcl-xL CΔ24 with BAK-CFluc229, HEK293T

Molecule	Average RLU [1, 3]	Average RLU [1, 4]	Percent Inhibition [1, 4] [%]	inhibition at 10 µM [1, 3] [%]	inhibition at 10 µM [1, 4] [%]	rapamycin dependent luminescence signal (overall signal) [2]	unassisted/background complementation [2]
CN(C)CC[C@H](CSc1ccccc1)Nc1ccc(S(=O)(=O)NC(=O)c2ccc(N3CCN(Cc4ccccc4-c4ccc(Cl)cc4)CC3)cc2)cc1[N+](=O)[O-] [ABT-737]	438,145 RLU	2,258 RLU	99.8	96.1	> 99	–	–
Y33A: first-generation split-Fluc228 with N-FLuc228 Y33A single mutant (SEQ ID NO: 8) (protein) MEDAKNIKKGPAPFYPLEDGTAGEQLHKAMKRAALVPGTIAFTDAHIEVNITYAEYFEMSVRLAEAMKRYGLNTNHRIVVCSENSLQFFMPVLGALFIGVAVAPANDIYNERELLNSMNISQPTVVFVSKKGLQKILNVQKKLPIIQKIIIMDSKTDYQGFQSMYTFVTSHLPPGFNEYDFVPESFDRDKTIALIMNSSGSTGLPKGVALPHRTACVRFSHARDPIFG	–	–	–	–	–	maintaining strong rapamycin dependent signals	significantly reduced unassisted complementation
H46A: first-generation split-Fluc228 with N-FLuc228 H46A single mutant (SEQ ID NO: 7) (protein) MEDAKNIKKGPAPFYPLEDGTAGEQLHKAMKRYALVPGTIAFTDAAIEVNITYAEYFEMSVRLAEAMKRYGLNTNHRIVVCSENSLQFFMPVLGALFIGVAVAPANDIYNERELLNSMNISQPTVVFVSKKGLQKILNVQKKLPIIQKIIIMDSKTDYQGFQSMYTFVTSHLPPGFNEYDFVPESFDRDKTIALIMNSSGSTGLPKGVALPHRTACVRFSHARDPIFG	–	–	–	–	–	maintaining strong rapamycin dependent signals	significantly reduced unassisted complementation
